Assay results from patent US10138222B2, “Substituted benzamides as RIPK2 inhibitors” (Boehringer Ingelheim International GmbH, priority 2016, dated 2018).

target: RIPK2 (Homo sapiens (Human), UniProt O43353); experiment: RIPK2 inhibition, ADP-Glo Kinase Assay; assay type: biochemical; details: 8His-RIPK2 FL enzyme 8 nM, ATP 5 μM, 15 minutes pre-incubation, 60 minutes at 37° C., luminescence
Description: RIPK2 inhibition for compounds in Table 1 are shown in Table 3 and measured using the following method:
Materials: White, 384-well optiplates (cat.no. 6007290) were purchased from PerkinElmer. The V9103X ADP-Glo Kinase Assay Custom (including ultra-pure ATP) was purchased from Promega. 8His-RIPK2 FL was prepared in-house. All other materials were of highest grade commercially available.
Method: In a 384-well plate, test compound diluted in assay buffer (1% DMSO final) is mixed with 8His-RIPK2 FL enzyme (final concentration of 8 nM). After 15 minutes of pre-incubation at RT, ATP dissolved in assay buffer is added (final concentration 5 μM). The mixture is incubated for 60 minutes at 37° C. in a humidified incubator. Then, ADP Glo Reagent is added, followed by a 40 minute incubation at rt. Finally, Kinase Detection Reagent is added and the entire mixture is incubated for 40 min at RT. The luminescence signal is measured with an Envision reader to determine the amount of ADP produced. Assay buffer: 25 mM HEPES (4-(2-hydroxyethyl)-1-piperazinethanesulfonic acid), 0.1% BSA (bovine serum albumin), 10 mM MgCl2, 5 mM MnCl2, 50 mM KCl, 0.01% CHAPS (3-[(3-cholamidopropyl)dimethylammonio]-1-propanesulfonate), 10 μM Na3VO4, 1 mM DTT (dithiothreitol), pH 7.5 All plates contain wells with vehicle controls instead of compound (1% DMSO) as reference for the high signal (100% CTL (100% of control), high signal), and wells without enzyme as reference for low signal (0% CTL, low signal). The luminescent signal generated is proportional to the ADP produced and is correlated with enzyme activity. The analysis of the data is performed by the calculation of the percentage of ADP production in the presence of the test compound and RIPK2 as compared to the ADP production in the presence of RIPK2 plus 50 μM Gefitinib. (RLU (relative luminescence units) (sample)−RLU(low control))*100/(RLU(high value)−RLU(low control)) [RLU=relative luminescence units].

RIPK2, sequence (O43353 whole entry): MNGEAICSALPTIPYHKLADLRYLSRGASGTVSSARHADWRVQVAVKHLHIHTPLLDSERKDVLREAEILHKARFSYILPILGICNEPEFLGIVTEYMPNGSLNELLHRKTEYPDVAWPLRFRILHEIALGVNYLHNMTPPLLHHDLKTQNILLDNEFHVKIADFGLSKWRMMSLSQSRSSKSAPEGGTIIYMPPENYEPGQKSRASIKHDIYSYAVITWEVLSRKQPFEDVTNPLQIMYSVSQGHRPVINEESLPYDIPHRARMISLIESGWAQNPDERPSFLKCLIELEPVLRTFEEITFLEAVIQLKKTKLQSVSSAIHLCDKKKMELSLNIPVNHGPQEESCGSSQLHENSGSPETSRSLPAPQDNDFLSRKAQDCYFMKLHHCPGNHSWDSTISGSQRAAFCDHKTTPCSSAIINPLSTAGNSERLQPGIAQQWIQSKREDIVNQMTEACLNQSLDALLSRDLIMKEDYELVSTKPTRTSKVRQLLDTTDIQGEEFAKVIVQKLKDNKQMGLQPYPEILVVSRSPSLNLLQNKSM

Compound | IC50 [nM]
COCCNc1cncc(-n2cc(-c3cc(C(=O)NC4CC4)ccc3C)cn2)c1 [Example 60, N-cyclopropyl-3-(1-{5-[(2-methoxyethyl)amino]pyridin-3-yl}-1H-pyrazol-4-yl)-4-methylbenzamide] | 8.4
CC(=O)N1CCC(Nc2cncc(-n3cc(-c4cc(C(=O)NC5CC5)ccc4C)cn3)c2)CC1 [Example 63, 3-(1-{5-[(1-acetylpiperidin-4-yl)amino]pyridin-3-yl}-1H-pyrazol-4-yl)-N-cyclopropyl-4-methyl-benzamide] | 1.9
COC1CCC(Nc2cncc(-n3cc(-c4cc(C(=O)NC5CC5)ccc4C)cn3)c2)C1 (stereo not shown) [Example 65, N-cyclopropyl-3-(1-{5-[(3-methoxycyclopentyl)amino]pyridin-3-yl}-1H-pyrazol-4-yl)-4-methyl-benzamide] | 2.3
Cc1ccc(C(=O)NC2CC2)cc1-c1cnn(-c2cncc(N[C@@H]3C[C@H]4CC[C@@H]3O4)c2)c1 [Example 66, N-cyclopropyl-4-methyl-3-[1-(5-{[(1S,2R,4R)-7-oxabicyclo[2.2.1]heptan-2-yl]amino}pyridin-3-yl)-1H-pyrazol-4-yl]benzamide] | 3.9
Cc1ccc(C(=O)NC2CC2)cc1-c1cnn(-c2cncc(NC(C)C3CCOC3)c2)c1 (stereo not shown) [Example 67, N-cyclopropyl-4-methyl-3-[1-(5-{[1-(oxolan-3-yl)ethyl]amino}pyridin-3-yl)-1H-pyrazol-4-yl]benzamide] | 1.6
Cc1cc(F)c(C(=O)NC2CC2)cc1-c1cnn(-c2cncc(NC3CCN(C4COC4)CC3)c2)c1 [Example 68, N-cyclopropyl-2-fluoro-4-methyl-5-[1-(5-{[1-(oxetan-3-yl)piperidin-4-yl]amino}pyridin-3-yl)-1H-pyrazol-4-yl]benzamide] | 1.1
Cc1ccc(C(=O)NC2CC2)cc1-c1cn(-c2cncc(C3CC3)c2)cn1 [Example 71, N-cyclopropyl-3-[1-(5-cyclopropyl-pyridin-3-yl)-1H-imidazol-4-yl]-4-methylbenzamide] | 2.7
Cc1ccc(C(=O)NC2CC2)cc1-c1cn(-c2cncc(N(C)C)c2)cn1 [Example 72, N-cyclopropyl-3-{1-[5-(dimethyl-amino)pyridin-3-yl]-1H-imidazol-4-yl}-4-methylbenzamide] | 3.9
Cc1ccc(C(=O)NC2CC2)cc1-c1cnn(-c2cncc(NC3CCN(C(=O)OC(C)(C)C)CC3)c2)c1 [Example 73, tert-butyl 4-[(5-{4-[5-(cyclopropylcarbamoyl)-2-methyl-phenyl]-1H-pyrazol-1-yl}pyridin-3-yl)amino]piperidine-1-carboxylate] | 15
COCCN1CCC(Nc2cncc(-n3cc(-c4cc(C(=O)NC5CC5)c(F)cc4C)cn3)c2)CC1 [Example 74, N-cyclopropyl-2-fluoro-5-[1-(5-{[1-(2-methoxyethyl)piperidin-4-yl]amino}pyridin-3-yl)-1H-pyrazol-4-yl]-4-methylbenzamide] | 1
Cc1cc(F)c(C(=O)NC2CC2)cc1-c1cnn(-c2cncc(NC3CC4CCC(C3)N4C3COC3)c2)c1 (stereo not shown) [Example 75, N-cyclopropyl-2-fluoro-4-methyl-5-[1-(5-{[8-(oxetan-3-yl)-8-azabicyclo[3.2.1]octan-3-yl]amino}pyridin-3-yl)-1H-pyrazol-4-yl]benzamide] | 0.9
Cc1ccc(C(=O)NC2CC2)cc1-c1cnn(-c2cncc(NC3CCN(C)CC3)c2)c1 [Example 76, N-cyclopropyl-4-methyl-3-(1-{5-[(1-methylpiperidin-4-yl)amino]pyridin-3-yl}-1H-pyrazol-4-yl)benzamide] | 0.61
Cc1cc(F)c(C(=O)NC2CC2)cc1-c1cnn(-c2cncc(NC3CCN(C)CC3)c2)c1 [Example 77, N-cyclopropyl-2-fluoro-4-methyl-5-(1-{5-[(1-methylpiperidin-4-yl)amino]pyridin-3-yl}-1H-pyrazol-4-yl) benzamide] | 1.1
Cc1ccc(C(=O)NC2CC2)cc1-c1cnn(-c2cncc(NC3CCOCC3)c2)c1 [Example 78, N-cyclopropyl-4-methyl-3-(1-{5-[(oxan-4-yl)amino]pyridin-3-yl}-1H-pyrazol-4-yl)benzamide] | 1.3
Cc1ccc(C(=O)NC2CC2)cc1-c1cn(-c2cncc(NC3CCN(C4COC4)CC3)c2)cn1 [Example 79, N-cyclopropyl-4-methyl-3-[1-(5-{[1-(oxetan-3-yl)piperidin-4-yl]amino}pyridin-3-yl)-1H-imidazol-4-yl] benzamide] | 1.4
Cc1ccc(C(=O)NC2CC2)cc1-c1cnn(-c2cncc(OCc3ccccc3)c2)c1 [Example 80, 3-{1-[5-(benzyloxy)pyridin-3-yl]-1H-pyrazol-4-yl}-N-cyclopropyl-4-methylbenzamide] | 26

Compound | IC50 [nM]
Cc1ccc(C(=O)NC2CC2)cc1-c1cnn(-c2cncc(OC(C)C)c2)c1 [Example 81, N-cyclopropyl-4-methyl-3-{1-[5-(propan-2-yloxy)pyridin-3-yl]-1H-pyrazol-4-yl}benzamide] | 5.4
Cc1ccc(C(=O)NC2CC2)cc1-c1cnn(-c2cncc(NC3CCNCC3)c2)c1 [Example 92, N-cyclopropyl-4-methyl-3-(1-{5-[(piperidin-4-yl)amino]pyridin-3-yl}-1H-pyrazol-4-yl)benzamide] | 1.5
Cc1ccc(C(=O)NC2CC2)cc1-c1cnn(-c2cncc(NC3CCN(C4CCC4)CC3)c2)c1 [Example 93, 3-(1-{5-[(1-cyclobutylpiperidin-4-yl)amino]pyridin-3-yl}-1H-pyrazol-4-yl)-N-cyclopropyl-4-methyl-benzamide] | 1.5
Cc1ccc(C(=O)NC2CC2)cc1-c1cnn(-c2cncc(NC3CCN(C4COC4)CC3)c2)c1 [Example 94, N-cyclopropyl-4-methyl-3-[1-(5-{[1-(oxetan-3-yl)piperidin-4-yl]amino}pyridin-3-yl)-1H-pyrazol-4-yl] benzamide] | 0.81
Cc1ccc(C(=O)NC2CC2)cc1-c1cnn(-c2cncc(O)c2)c1 [Example 95, N-cyclopropyl-3-[1-(5-hydroxypyridin-3-yl)-1H-pyrazol-4-yl]-4-methyl-benzamide] | 6.1
Cc1ccc(C(=O)NC2CC2)cc1-c1cnn(-c2cncc(OC3CCOCC3)c2)c1 [Example 96, N-cyclopropyl-4-methyl-3-{1-[5-(oxan-4-yloxy)pyridin-3-yl]-1H-pyrazol-4-yl}benzamide] | 5.4
Cc1ccc(C(=O)NC2CC2)cc1-c1cnn(-c2cncc(NC3CCCCC3)c2)c1 [Example 97, 3-{1-[5-(cyclohexylamino)pyridin-3-yl]-1H-pyrazol-4-yl}-N-cyclo-propyl-4-methylbenzamide] | 3.3
Cc1ccc(C(=O)NC2CC2)cc1-c1cnn(-c2cncc(N3CCOCC3)c2)c1 [Example 98, N-cyclopropyl-4-methyl-3-{1-[5-(morpholin-4-yl)pyridin-3-yl]-1H-pyrazol-4-yl}benzamide] | 10
Cc1ccc(C(=O)NC2CC2)cc1-c1cnn(-c2cncc(NCC3CC3)c2)c1 [Example 99, N-cyclopropyl-3-(1-{5-[(cyclopropylmethyl)amino]pyridin-3-yl}-1H-pyrazol-4-yl)-4-methyl-benzamide] | 2.6
Cc1ccc(C(=O)NC2CC2)cc1-c1cnn(-c2cncc(N3CCN(C)CC3)c2)c1 [Example 100, N-cyclopropyl-4-methyl-3-{1-[5-(4-methylpiperazin-1-yl)pyridin-3-yl]-1H-pyrazol-4-yl}benzamide] | 29
Cc1ccc(C(=O)NC2CC2)cc1-c1cnn(-c2cncc(C3(C(N)=O)CC3)c2)c1 [Example 101, 3-{1-[5-(1-carbamoylcyclopropyl)pyridin-3-yl]-1H-pyrazol-4-yl}-N-cyclopropyl-4-methylbenzamide] | 370
O=C(NC1CC1)c1cc(-c2cnn(-c3cncc(C4CC4)c3)c2)c(Cl)cc1F [Example 104, 4-chloro-N-cyclopropyl-5-[1-(5-cyclopropylpyridin-3-yl)-1H-pyrazol-4-yl]-2-fluorobenzamide] | 1.9
Cc1cc(F)c(C(=O)NC2CC2)cc1-c1cnn(-c2cncc(C3CC3)c2)c1 [Example 105, N-cyclopropyl-5-[1-(5-cyclopropyl-pyridin-3-yl)-1H-pyrazol-4-yl]-2-fluoro-4-methylbenzamide] | 1
Cc1ccc(C(=O)NC2CC2)cc1-c1cnn(-c2cncc(N)c2)c1 [Example 106, 3-[1-(5-aminopyridin-3-yl)-1H-pyrazol-4-yl]-N-cyclopropyl-4-methylbenzamide] | 7
CNC(=O)Nc1cncc(-n2cc(-c3cc(C(=O)NC4CC4)ccc3C)cn2)c1 [Example 107, N-cyclopropyl-4-methyl-3-(1-{5-[(methylcarbamoyl)amino]pyridin-3-yl}-1H-pyrazol-4-yl)benzamide] | 3.3
